Data reported in article PMC6538953, “Metal Ions Activate the Human Taste Receptor TAS2R7” (Chemical Senses, 2019).
Positions count from the first letter of the chain named.

Columns and labels:
[1] = target: T1, human TAS2R7 E264^7.32K mutant (Homo sapiens, UniProt Q9NYW3, E264K); test: Calcium mobilization assay, TAS2R7 mutant E264K; type: cell-based; details: 20 mM metal ions except 0.16 mM Al2(SO4)3; cromolyn 10 mM; Figure 6B
T1 construct: signal peptide: first 45 amino acid residues of rat somatostatin receptor 3 (N); expressed in transfected cells; host or cells: HEK293 PEAKrapid (ATCC CRL-2828), transient, co-transfected with Gα16-gust44
T1 sequence (Q9NYW3 1-318 E264K): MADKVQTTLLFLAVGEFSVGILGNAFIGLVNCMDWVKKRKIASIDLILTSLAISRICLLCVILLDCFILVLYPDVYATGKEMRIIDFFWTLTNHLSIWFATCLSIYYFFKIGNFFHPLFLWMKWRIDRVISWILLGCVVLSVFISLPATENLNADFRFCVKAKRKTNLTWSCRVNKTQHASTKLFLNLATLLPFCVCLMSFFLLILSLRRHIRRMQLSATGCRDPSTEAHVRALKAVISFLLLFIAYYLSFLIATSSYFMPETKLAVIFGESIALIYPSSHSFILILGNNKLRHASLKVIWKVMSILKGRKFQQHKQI
Text: (§1) The coding sequences of human TAS2Rs were amplified from human genomic DNA, then subcloned into pcDNA3.1(+) vector, with the herpes simplex virus glycoprotein D epitope (HSV) at the C-terminal and a signal peptide consisting of the first 45 amino acid residues of the rat somatostatin receptor 3 at the N-terminal, essentially as described previously ([Bufe et al. 2002]). Point mutations in human TAS2R7 (NCBI Reference Sequence: NP_076408.1) were constructed by site-directed mutagenesis. All the constructs were confirmed by Sanger sequencing.
Human embryonic kidney 293 (PEAKrapid, ATCC # CRL-2828) cells were cultured in Opti-MEM medium with 4% fetal bovine serum. One day before transfection, cells were seeded on a 96-well plate at a density of 25 000 per well. Cells were then transiently transfected with a TAS2R construct (0.1 µg/well) along with a G protein Gα16-gust44 (0.1 µg/well) construct by Lipofectamine 2000 (0.5 µl/well). For controls, only Gα16-gust44 was used (mock transfection). Twenty-four hours after transfection, cells were washed with HBSS including 10 mM HEPES and loaded with Fluo-4 in the dark for 1 h. After incubation, cells were washed 2 times with HBSS (including 10 mM HEPES), incubated in the dark for another 30 min, and then washed with assay solution once more before running the assay using a FlexStation III reader. Relative fluorescence units (excitation at 494 nm, emission at 516 nm, and auto cutoff at 515 nm) were read every 2 s for 2 min. Calcium mobilization traces were recorded.
Calcium mobilization traces were raw data obtained from single wells. Changes in fluorescence (ΔF) were calculated as the peak fluorescence minus baseline fluorescence ([Lei et al. 2015]). The calcium mobilization was quantified as the percentage of change (ΔF) relative to baseline (F). […] Calcium mobilization traces and bar graphs along with dose-dependent plots were all generated by GraphPad Prism 7. Analysis of variance with Dunnett’s multiple comparisons test was used for statistical analysis. *P < 0.05.
To assess the importance of these residues, we performed site-directed mutagenesis. We mutated the negatively charged residues E16^1.42, E264^7.32, and E271^7.39 to Q (glutamine), K (lysine), or L (leucine). The facing H94^3.37 was mutated to F (phenylalanine). HEK293 cells that expressed mutant receptors along with Gα16-gust44 were examined for their responses to metal ions (20 mM for all except 0.16 mM Al2(SO4)3) and cromolyn (10 mM, as a positive control) to assess receptor’s function. To determine the expression level of each receptor, we stained the wild-type or mutant receptor-transfected cells using an anti-HSV antibody since all the receptors are tagged with HSV at c-terminal. […]

[2] = target: T2, human TAS2R7 E264^7.32Q mutant (Homo sapiens, UniProt Q9NYW3, E264Q); test: Calcium mobilization assay, TAS2R7 mutant E264Q; type: cell-based; details: 20 mM metal ions except 0.16 mM Al2(SO4)3; cromolyn 10 mM; Figure 6C
T2 construct: signal peptide: first 45 amino acid residues of rat somatostatin receptor 3 (N); expressed in transfected cells; host or cells: HEK293 PEAKrapid (ATCC CRL-2828), transient, co-transfected with Gα16-gust44
T2 sequence (Q9NYW3 1-318 E264Q): T1 sequence (Q9NYW3 1-318 E264K) with K264Q
Text: as §1
(§2) Human embryonic kidney 293 (PEAKrapid, ATCC # CRL-2828) cells were cultured in Opti-MEM medium with 4% fetal bovine serum. […] After incubation, cells were washed 2 times with HBSS (including 10 mM HEPES), incubated in the dark for another 30 min, and then washed with assay solution once more before running the assay using a FlexStation III reader. Relative fluorescence units (excitation at 494 nm, emission at 516 nm, and auto cutoff at 515 nm) were read every 2 s for 2 min. Calcium mobilization traces were recorded.
(§3) Calcium mobilization traces were raw data obtained from single wells. Changes in fluorescence (ΔF) were calculated as the peak fluorescence minus baseline fluorescence ([Lei et al. 2015]). The calcium mobilization was quantified as the percentage of change (ΔF) relative to baseline (F). […]

[3] = target: T3, human TAS2R7 E271^7.39 to glutamine mutant (Homo sapiens, UniProt Q9NYW3, E271Q); test: Calcium mobilization assay, TAS2R7 mutant E271Q; type: cell-based; details: 20 mM metal ions except 0.16 mM Al2(SO4)3; cromolyn 10 mM; Figure 6C
T3 construct: signal peptide: first 45 amino acid residues of rat somatostatin receptor 3 (N); expressed in transfected cells; host or cells: HEK293 PEAKrapid (ATCC CRL-2828), transient, co-transfected with Gα16-gust44
T3 sequence (Q9NYW3 1-318 E271Q): T1 sequence (Q9NYW3 1-318 E264K) with K264E, E271Q
Text: as §1, §2, §3

[4] = target: T4, human TAS2R7 (Homo sapiens, UniProt Q9NYW3); design: method as in Meyerhof et al. 2010; details: ref Meyerhof et al. 2010; cited from earlier work
T4 construct: first 45 residues of rat somatostatin receptor 3 (signal peptide) (N); expressed in transfected cells; host or cells: HEK293 (PEAKrapid, ATCC CRL-2828)
T4 sequence (Q9NYW3 1-318): T1 sequence (Q9NYW3 1-318 E264K) with K264E

## O=C(O)c1cc(=O)c2c(OCC(O)COc3cccc4oc(C(=O)O)cc(=O)c34)cccc2o1 [cromolyn, reference compound]
[1]
  Response of E264K mutant receptor: reduced
[2]
  Response of E264Q mutant receptor: reduced responses
[3]
  Response of E271 to glutamine mutant receptor: slightly reduced responses
[4]
  TAS2R7 reported to respond to bitter compounds: respond
